The subject of one data set is Alzheimer's Disease. Particulars: cited from earlier work; for improvement in memory: patients with mild to moderate Alzheimer's Disease.
A further data set concerns the target Human m1 receptors (Homo sapiens, UniProt P11229). Put plainly: biochemical. It is filed as binding.
Data set [1] concerns the target T1, muscarinic M1 receptors (Rattus norvegicus, UniProt P08482).
T1 construct: The cortex of rat brains obtained from male Sprague-Dawley rats; from tissue; host or cells: rat brain cortex homogenate (male Sprague-Dawley)
T1 sequence (P08482 1-460): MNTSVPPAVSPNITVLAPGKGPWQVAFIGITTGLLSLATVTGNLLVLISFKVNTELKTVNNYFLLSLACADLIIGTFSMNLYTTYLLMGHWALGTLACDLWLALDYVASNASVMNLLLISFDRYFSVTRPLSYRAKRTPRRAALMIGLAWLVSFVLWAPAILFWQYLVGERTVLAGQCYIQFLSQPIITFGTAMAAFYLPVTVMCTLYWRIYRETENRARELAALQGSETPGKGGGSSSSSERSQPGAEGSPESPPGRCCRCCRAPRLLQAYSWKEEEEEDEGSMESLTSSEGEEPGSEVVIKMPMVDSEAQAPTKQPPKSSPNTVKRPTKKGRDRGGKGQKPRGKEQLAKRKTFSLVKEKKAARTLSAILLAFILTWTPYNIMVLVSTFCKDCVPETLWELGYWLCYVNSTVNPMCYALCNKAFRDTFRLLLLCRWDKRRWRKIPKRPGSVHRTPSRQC
Description: Tritiated pirenzepine ([^3 H]PZ) binding inhibition, rat brain cortex (M1 binding). The conditions noted are these: [^3 H]PZ 0.5 nM, read-out: M1 Binding % Inhib. of [^3 H] Pz @ 10 μM. The method, then:
The cortex of rat brains obtained from male Sprague-Dawley rats (300 g) are homogenized using a hand-held teflon-coated pestle in 20 volumes of 0.32M sucrose. After centrifugation (747×g for 10 min at 4° C.), the resultant supernatant is decanted and recentrifuged (18677×g for 20 min at 4° C.). The resultant pellet is resuspended in the original volume of 0.32M sucrose and frozen. After thawing, the suspension is diluted (1:1 v/v) with 10 mM Na2 HPO4 /KH2 PO4 buffer (pH=7.4). [^3 H]PZ (0.5 nM, 0.04 μCi) is then incubated in multiple tubes with a 100 μl sample of the tissue suspension and 10 μl of a test compound solution (10 μM in water or ethanol) or vehicle (for control) in a sufficient quantity of the above phosphate buffer to give a total volume of 1 ml. One half of the tubes also contain 2 μM atropine sulfate which binds non-specifically with muscarinic receptors and provides for correcting the data for binding with other muscarinic receptors which may be present. After 60 minutes of incubation as 25° C. in the dark, the binding is terminated by vacuum filtration onto Whatman GF/B filters (pre-soaded for 60 minutes in 0.1% (w/v) polyethylenimine to reduce non-specific binding). After three washes with the phosphate buffer (4° C., 3 ml/wash) the vacuum is allowed to continue for two minutes before the filter-trapped radioactivity is assayed by liquid scintillation spectroscopy. Specific [^3 H]PZ binding is defined as total binding minus binding in the presence of 2 μM atropine sulfate. Data are pesented in Table I below as the percent inhibition ([control-test]/control×100%) of [^3 H]PZ binding by the test or reference compound.

For data set [2], the target named is T2, M1 acetylcholine receptors (Homo sapiens, UniProt P11229).
T2 sequence (P11229 1-460): T1 sequence (P08482 1-460) with V5A, S254T, S309P, K320R, G337A, V413I
Description: cell-based. Particulars: CHO, 1 h; read-out: PI Turnover % above baseline.

Data set [3] has as its target T1, muscarinic M1 receptors. Description: Tritiated pirenzepine ([^3 H]PZ) binding inhibition, rat brain cortex (M1 binding).
For data set [4], the target named is muscarinic M2 receptors (Rattus norvegicus, UniProt P10980). Put plainly: biochemical. It is filed as binding.
Chain of muscarinic M2 receptors (Rattus norvegicus, UniProt P10980) (P10980 whole entry): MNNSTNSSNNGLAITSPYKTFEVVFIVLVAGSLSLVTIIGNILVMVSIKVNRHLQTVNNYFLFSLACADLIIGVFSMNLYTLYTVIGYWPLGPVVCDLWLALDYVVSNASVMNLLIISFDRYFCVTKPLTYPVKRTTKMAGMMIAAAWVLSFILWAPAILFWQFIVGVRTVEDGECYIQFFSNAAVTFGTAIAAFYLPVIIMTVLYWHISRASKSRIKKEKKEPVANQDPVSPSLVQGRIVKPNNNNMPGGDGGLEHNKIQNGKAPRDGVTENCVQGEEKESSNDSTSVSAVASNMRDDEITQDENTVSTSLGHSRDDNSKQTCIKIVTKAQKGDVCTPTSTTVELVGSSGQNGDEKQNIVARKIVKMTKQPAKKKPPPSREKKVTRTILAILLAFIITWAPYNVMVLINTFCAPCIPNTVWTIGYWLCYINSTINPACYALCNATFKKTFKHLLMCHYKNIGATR
In data set [5] the test system is muscarinic M2 receptors. Description: biochemical. It is filed as binding, rat. Particulars: selectivity M1 versus M2.
The conditions of data set [6]: quaternary ammonium compounds; cited from earlier work.
The subject of a further data set is m1 receptors. The conditions noted are these: cited from earlier work.
For data set [7] the following is noted: in vivo; cited from earlier work.

What is called Ki is a dissociation constant, usually derived from enzyme kinetics or from competition with a known ligand. A high value points to weaker binding.

SMILES strings stand for the structures. Positions count from the first letter of the chain named.

Chain of Human m1 receptors (P11229 whole entry): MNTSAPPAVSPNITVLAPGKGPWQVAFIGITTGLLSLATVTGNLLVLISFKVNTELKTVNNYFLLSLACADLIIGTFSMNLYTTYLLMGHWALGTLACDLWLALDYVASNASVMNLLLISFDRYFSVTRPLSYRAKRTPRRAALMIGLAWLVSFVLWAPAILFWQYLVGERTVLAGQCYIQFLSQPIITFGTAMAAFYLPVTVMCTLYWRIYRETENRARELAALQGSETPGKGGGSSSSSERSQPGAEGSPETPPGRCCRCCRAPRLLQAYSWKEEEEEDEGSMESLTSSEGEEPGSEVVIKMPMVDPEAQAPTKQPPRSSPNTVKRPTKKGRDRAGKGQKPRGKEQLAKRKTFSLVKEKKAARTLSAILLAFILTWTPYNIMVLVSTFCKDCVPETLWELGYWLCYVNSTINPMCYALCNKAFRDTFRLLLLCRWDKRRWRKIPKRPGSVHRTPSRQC

Regarding `Nc1c2c(nc3ccccc13)CCCC2` [tacrine], the adverse side effects result in the data set on Alzheimer's Disease (higher doses) is listed as “adverse side effects especially at the higher doses”. Besides, the improvement in memory entry in the data set with Alzheimer's Disease is “improvement in memory can be shown in patients with mild to moderate Alzheimer's Disease”. In turn, `FC(F)(F)c1nnc(NCCCCN2CC3CCC(CC3)C2)c2cc3n(c12)CCCC3` [Example 12, N-[4-(3-Azabicyclo[3.2.2]non-3-yl)butyl]-6,7,8,9-tetrahydro-4-(trifluoromethyl)-pyridazino[4,5-b]indolizin-1-amine] had a Ki on Human m1 receptors of 206 nM. For the compound `CCN(CC)CCCNCc1nnc(NCCCN(CC)CC)c2cc3ccccn3c12` [Example 7, N,N-Diethyl-N'-[4-[[[3-(diethylamino)propyl]amino]methyl]-pyridazino[4.5-b]indolizin-1-yl]-1,3-propanediamine], the inhibition at 10 µM on muscarinic M1 receptors [1] stood at 99.3%. In the case of `FC(F)(F)c1nnc(NCCCCN2CC3CCC(CC3)C2)c2cc3ccccn3c12` [Example 1, N-[4-(3-Azabicyclo[3.2.2]non-3-yl)butyl]-4-(trifluoromethyl)pyridazino[4,5b]indolizine-1-amine], the affinity on Human m1 receptors, expressed as Ki, was 240 nM. Take `COCc1nnc(NCCCCN2CC3CCC(CC3)C2)c2cc3ccccn3c12` [Example 5, N-[4-(3-Azabicyclo[3.2.2]non-3-yl)butyl]-4-(methoxymethyl)pyridazino[4.5-b]indolizin-1-amine]: the inhibition at 10 µM at muscarinic M1 receptors [1] worked out at 100%. Turning to `CCN(CC)CCCNc1nnc(COC)c2c1cc1ccccn12` [Example 3, N,N-Diethyl-N'-[4-(methoxymethyl)pyridazino[4,5-b]indolizin-1-yl]-1.3-propanediamine], the inhibition at 10 µM on muscarinic M1 receptors [1] was 98.4%. As for `COCc1nnc(NCCCCN2CC3CCC(CC3)C2)c2cc3n(c12)CCCC3` [Example 14, N-[4-(3-Azabicyclo[3.2.2]non-3-yl)butyl]-6,7,8,9-tetrahydro-4-(methoxymethyl)-pyridazino[4,5-b]indolizin-1-amine], in [2], the Emax turned out to be 73%. Moreover, the inhibition at 10 µM at muscarinic M1 receptors [1] is 101%. Consider `c1ccc(COCc2nnc(NCCN3CCN(c4ncccn4)CC3)c3cc4ccccn4c23)cc1` [Example 6, 4-[(Phenylmethoxy)methyl]-N-[2-[4-(2-pyrimidinyl)-1-piperazinyl]ethyl]pyridazino[4,5-b]indolizin-1-amine], for which the inhibition at 10 µM on muscarinic M1 receptors [1] was determined as 98.3%. As to `Cc1nnc(NCCCCN2CC3CCC(CC3)C2)c2cc3n(c12)CCCC3` [Example 11, N-[4-(3-Azabicyclo[3.2.2]non-3-yl)butyl]-6,7,8,9-tetrahydro-4-methylpyridazino[4,5-b]indolizin-1-amine], the Emax in [2] turned out to be 102%. The inhibition at 1 µM at muscarinic M1 receptors [3] (1 μM, rat cortex, [^3 H]PZ 0.5 nM, read-out: M1 Binding % Inhib. of [^3 H] Pz @ 1 μM) was 101%. Besides, the Ki at muscarinic M1 receptors [3] (Table II, rat brain M1) came to 1.34 nM; on muscarinic M2 receptors [4], 13.4 nM. The “M2/M1 Ki ratio” value with muscarinic M2 receptors [5] is 10. Consider `C[N+](C)(C)CCOC(N)=O` [carbachol], for which, in data set [6], the “ability to cross the blood brain barrier” value is on record as “not able to cross the blood brain barrier”. Consider `COCc1nnc(NCCCN2CC3CCC(CC3)C2)c2cc3ccccn3c12` [Example 4, N-[3-(3-Azabicyclo[3.2.2]non-3-yl)propyl]-4-(methoxymethyl)pyridazino[4.5-b]indolizin-1-amine], for which, at muscarinic M1 receptors [1], the inhibition at 10 µM was found to be 100%. The compound `FC(F)(F)c1nnc(NCCCN2CC3CCC(CC3)C2)c2cc3ccccn3c12` [Example 2] registered a Ki at Human m1 receptors of 140 nM. Same read-out and setting: in the case of `Cc1nnc(NCCCN2CC3CCC(CC3)C2)c2cc3n(c12)CCCC3` [Example 10, N-[3-(3-Azabicyclo[3.2.2]non-3-yl)propyl]-6,7,8,9-tetrahydro-4-(methyl)pyridazino[4,5-b]indolizin-1-amine] it was 9 nM. Take `CCN(CC)CCCNc1nnc(C)c2c1cc1n2CCCC1` [Example 8, N,N-Diethyl-N'-[6,7,8,9-tetrahydro-4-(methyl)-pyridazino[4,5-b]indolizin-1-yl]-1.3-propanediamine]: the inhibition at 10 µM at muscarinic M1 receptors [1] stood at 98%.

Take `CCN(CC)CCCNc1nnc(COC)c2c1cc1n2CCCC1` [Example 13, N,N-Diethyl-N'-[6,7,8,9-tetrahydro-4-(methoxymethyl)-pyridazino[4,5-b]indolizin-1-yl]-1.3-propanediamine]: the inhibition at 10 µM at muscarinic M1 receptors [1] worked out at 109%. Regarding `C[C@@H]1O[C@H](C[N+](C)(C)C)C[C@H]1O` [muscarine], in the data set with m1 receptors, the “activation of m1 receptors” value is “able to fully activate m1 receptors”. Moreover, in data set [6], the “ability to cross the blood brain barrier” value is listed as “not able to cross the blood brain barrier”.

Consider `COC(=O)C1=CCCN(C)C1` [arecoline], for which the half-life result in [7] was “short half-life”. Also, the improvement in memory entry with Alzheimer's Disease is “memory improvement in patients with mild to moderate Alzheimer's Disease”. In the case of `Cc1nnc(NCCN2CC3CCC(CC3)C2)c2cc3n(c12)CCCC3` [Example 9], on Human m1 receptors, the Ki came out at 80 nM. Turning to `c1ccc(COCc2nnc(NCCCCN3CCOCC3)c3cc4n(c23)CCCC4)cc1` [Example 15, 6,7,8,9,-Tetrahydro-N-[4-(4-morpholinyl)butyl]-4-[(phenylmethoxy)methyl]-pyradazino[4,5-b]indolizin-1-amine], the inhibition at 10 µM on muscarinic M1 receptors [1] was determined as 100%.

The values above are taken from US5756501A, “Saturated and unsaturated pyridazino[4,5-B] indolizines useful as antidementia agents” (American Home Products Corporation, priority 1996, dated 1998).
